Results from ChEMBL document CHEMBL3865792, “Antioxidant and antitumor activity of trolox, trolox succinate, and α-tocopheryl succinate conjugates with nitroxides” (Eur J Med Chem, 2016).

What was measured:
[1] = Ratio of IC50 for human U937 cells to concentration causing antioxidant activity in Salmonella typhimurium TA102 harboring […] mutant; type: functional, U-937
[2] = Cytotoxicity against mouse LMTK cells assessed as reduction in cell viability after 72 hrs by MTT assay; type: toxicity
[3] = Ratio of IC50 for human MT4 cells to concentration causing antioxidant activity in Salmonella typhimurium TA102 harboring […] mutant; type: functional
Salmonella typhimurium = assay: Genotoxicity in Salmonella typhimurium TA102 harboring […] mutant assessed as frequency of reversion from histidine auxotrophy to prototrophy at 30 mM after 48 hrs by Ames test (reference value: 209 +/- 10 No _unit); type: toxicity, organism-based; details: salmonella enterica subsp. enterica serovar typhimurium, 30000 µM
[4] = Ratio of IC50 for human RPMI8226 cells to concentration causing antioxidant activity in Salmonella typhimurium TA102 harboring […] mutant; type: functional, RPMI-8226
[5] = Cytotoxicity against mouse LMTK cells assessed as reduction in cell viability at 300 uM after 72 hrs by MTT assay; type: toxicity; details: read-out: INH
[6] = Cytotoxicity against human MCF7 cells assessed as reduction in cell viability after 72 hrs by MTT assay; type: functional, cell-based; details: MCF7, 72 h
[7] = Genotoxicity in Escherichia coli PQ37 expressing lacZ gene assessed as ratio of inducible beta-galactosidase activity to alkaline phosphatase activity at 30 mM after 2 hrs by SOS-chromotest relative to control; type: toxicity; details: Escherichia coli PQ37 cells expressing lacZ gene, read-out: FC
[8] = test system: Salmonella enterica subsp. enterica serovar Typhimurium; assay: Antioxidant activity in Salmonella typhimurium TA102 harboring […] mutant assessed as inhibition of t-BuO2H-dependant mutant formation at 30 uM preincubated with compound followed by t-BuO2H addition after 48 hrs by Ames test; type: functional
[9] = Cytotoxicity against human U937 cells assessed as reduction in cell viability after 72 hrs by MTT assay; type: functional, cell-based; details: U-937, 72 h
[10] = Cytotoxicity against human CEM13 cells assessed as reduction in cell viability at 300 uM after 72 hrs by MTT assay; type: functional; details: CEM13, 72 h
[11] = Cytotoxicity against human MT4 cells assessed as reduction in cell viability after 72 hrs by MTT assay; type: functional, cell-based; details: MT4, 72 h
[12] = Cytotoxicity against human RPMI8226 cells assessed as reduction in cell viability after 72 hrs by MTT assay; type: functional, cell-based; details: RPMI-8226, 72 h
[13] = test system: Salmonella enterica subsp. enterica serovar Typhimurium; assay: Antioxidant activity in Salmonella typhimurium TA102 harboring […] mutant assessed as inhibition of t-BuO2H-dependant mutant formation at 0.3 uM preincubated with compound followed by t-BuO2H addition after 48 hrs by Ames test; type: functional
[14] = Cytotoxicity against hamster AG17-1 cells assessed as reduction in cell viability after 72 hrs by MTT assay; type: toxicity, cell-based, Cricetulus griseus; details: Chinese hamster
[15] = Ratio of IC50 for human MCF7 cells to concentration causing antioxidant activity in Salmonella typhimurium TA102 harboring […] mutant; type: functional
[16] = Ratio of IC50 for human CEM13 cells to concentration causing antioxidant activity in Salmonella typhimurium TA102 harboring […] mutant; type: functional
[17] = test system: Salmonella enterica subsp. enterica serovar Typhimurium; assay: Antioxidant activity in Salmonella typhimurium TA102 harboring […] mutant assessed as inhibition of t-BuO2H-dependant mutant formation at 3 uM preincubated with compound followed by t-BuO2H addition after 48 hrs by Ames test; type: functional
[18] = Cytotoxicity against human HepG2 cells assessed as reduction in cell viability after 72 hrs by MTT assay; type: functional, cell-based; details: HepG2, 72 h
[19] = Cytotoxicity against human CEM13 cells assessed as reduction in cell viability after 72 hrs by MTT assay; type: functional, cell-based; details: CEM13, 72 h
[20] = Ratio of IC50 for human HEPG2 cells to concentration causing antioxidant activity in Salmonella typhimurium TA102 harboring […] mutant; type: functional
[21] = Cytotoxicity against human MCF7 cells assessed as reduction in cell viability at 300 uM after 72 hrs by MTT assay; type: functional; details: MCF7, 72 h
[22] = Cytotoxicity against hamster AG17-1 cells assessed as reduction in cell viability at 300 uM after 72 hrs by MTT assay; type: toxicity, cell-based, Cricetulus griseus; details: Chinese hamster, read-out: INH
[23] = Cytotoxicity against human RPMI8226 cells assessed as reduction in cell viability at 300 uM after 72 hrs by MTT assay; type: functional; details: RPMI-8226, 72 h
[24] = Genotoxicity in Escherichia coli PQ37 expressing lacZ gene assessed as ratio of inducible beta-galactosidase activity to alkaline phosphatase activity at 3 mM after 2 hrs by SOS-chromotest relative to control; type: toxicity; details: Escherichia coli PQ37 cells expressing lacZ gene, read-out: FC
[25] = Cytotoxicity against human HepG2 cells assessed as reduction in cell viability at 300 uM after 72 hrs by MTT assay; type: functional; details: HepG2, 72 h

Row | SMILES | Ratio [1] | IC50 at 72 h [2] [µM] | Ratio [3] | Activity (Salmonella typhimurium) | Ratio [4] | cytotoxicity at 72 h, 300 µM [5] [%] | IC50 [6] [µM] | inhibition [8] [%] | IC50 [9] [µM] | IC50 [11] [µM] | IC50 [12] [µM] | inhibition [13] [%] | IC50 at 72 h [14] [µM] | Ratio [15] | Ratio [16] | inhibition [17] [%] | IC50 [18] [µM] | IC50 [19] [µM] | Ratio [20] | inhibition at 300 µM [25] [%] | other results
1 | Cc1c(C)c2c(c(C)c1O)CCC(C)(C(=O)NC1CC(C)(C)N([O])C1(C)C)O2 (stereo unspecified) | 100 - 1000 | > 300 | 100 - 1000 | 221 | 100 - 1000 | 32 | 58 | 62 | 98 | 144 | 58 | 55.2 | 194 | 100 - 1000 | 100 - 1000 | 57.6 | 145 | > 300 | 100 - 1000 |  | fold induction at 2 h, 30000 µM [7]: 1.2; inhibition at 300 µM [10]: 45%
2 | CC1(C)CC(NC(=O)CCC(=O)O)C(C)(C)N1[O] (stereo unspecified) | 100 - 1000 | > 300 | 100 - 1000 | 199 | 100 - 1000 | 0 | > 300 | 52 | 241 | > 400 | > 300 | 38 | > 300 | 100 - 1000 | 100 - 1000 | 48 | > 300 | > 400 | 100 - 1000 | 0 | inhibition at 300 µM [21]: 17%; cytotoxicity at 72 h, 300 µM [22]: 19%; inhibition at 300 µM [23]: 44%; fold induction at 2 h, 3000 µM [24]: 1.2
3 | Cc1c(C)c2c(c(C)c1O)CCC(C)(C(=O)NCC1CC(C)(C)N([O])C1(C)C)O2 (stereo unspecified) | 100 - 1000 | 300 | 100 - 1000 | 225 | 100 - 1000 | 25 | > 300 | 17.7 | 134 | 231 | 70 | 26 | 192 | 100 - 1000 | 100 - 1000 | 21.5 | > 300 | > 300 | 100 - 1000 | 38 | fold induction at 2 h, 30000 µM [7]: 1; inhibition at 300 µM [10]: 32%; inhibition at 300 µM [21]: 34%
4 | CC1(C)CC(NC(=O)CCC(=O)O)CC(C)(C)N1[O] | 100 - 1000 | > 300 | 100 - 1000 | 211 | 100 - 1000 | 18 | > 300 | 41 | 170 | > 400 | > 300 | 36 | > 300 | 100 - 1000 | 100 - 1000 | 49 | > 300 | > 400 | 100 - 1000 | 0 | inhibition at 300 µM [21]: 20%; cytotoxicity at 72 h, 300 µM [22]: 0%; inhibition at 300 µM [23]: 12%; fold induction at 2 h, 3000 µM [24]: 1.3
5 | Cc1c(C)c2c(c(C)c1OC(=O)CCC(=O)O)CCC(C)(C(=O)NC1CC(C)(C)N([O])C(C)(C)C1)O2 (stereo unspecified) | 100 - 1000 | > 300 | 100 - 1000 | 216 | 100 - 1000 | 0 | > 300 | 19 | 123 | 165 | > 300 | 10 | > 300 | 100 - 1000 | 100 - 1000 | 18 | > 300 | > 300 | 100 - 1000 | 44 | fold induction at 2 h, 30000 µM [7]: 1.1; inhibition at 300 µM [10]: 30%; inhibition at 300 µM [21]: 15%; cytotoxicity at 72 h, 300 µM [22]: 36%; inhibition at 300 µM [23]: 14%
6 | Cc1c(C)c2c(c(C)c1OC(=O)CCC(=O)NC1CC(C)(C)N([O])C(C)(C)C1)CC[C@@](C)(CCC[C@H](C)CCC[C@H](C)CCCC(C)C)O2 | 100 - 1000 | > 300 | 100 - 1000 | 222 | 100 - 1000 | 19 | > 300 | 20 | 76 | 53 | > 300 | 24 | > 300 | 100 - 1000 | 100 - 1000 | 29 | > 300 | 146 | 100 - 1000 | 5 | fold induction at 2 h, 30000 µM [7]: 1.1; inhibition at 300 µM [21]: 28%; cytotoxicity at 72 h, 300 µM [22]: 30%; inhibition at 300 µM [23]: 13%
7 | CC1(C)CC(CNC(=O)CCC(=O)O)C(C)(C)N1[O] (stereo unspecified) | 100 - 1000 | > 300 | 100 - 1000 | 219 | 100 - 1000 | 0 | > 300 | 11 | 282 | > 400 | > 300 | 15 | > 300 | 100 - 1000 | 100 - 1000 | 21 | > 300 | > 400 | 100 - 1000 | 0 | inhibition at 300 µM [21]: 24%; cytotoxicity at 72 h, 300 µM [22]: 0%; inhibition at 300 µM [23]: 13%; fold induction at 2 h, 3000 µM [24]: 1.3
8 | Cc1c(C)c2c(c(C)c1OC(=O)CCC(=O)NC1CC(C)(C)N([O])C1(C)C)CC[C@@](C)(CCC[C@H](C)CCC[C@H](C)CCCC(C)C)O2 (stereo partly specified) | 100 - 1000 | > 300 | 100 - 1000 | 227 | 100 - 1000 | 30 | 95 | 12 | 69 | 87 | 55 | 21 | > 300 | 100 - 1000 | 100 - 1000 | 29 | > 300 | > 300 | 100 - 1000 | 38 | fold induction at 2 h, 30000 µM [7]: 0.8; inhibition at 300 µM [10]: 34%; cytotoxicity at 72 h, 300 µM [22]: 38%
9 | Cc1c(C)c2c(c(C)c1OC(=O)CCC(=O)NC1CC(C)(C)N([O])C1(C)C)CCC(C)(C(=O)NC1CC(C)(C)N([O])C1(C)C)O2 (stereo unspecified) | 100 - 1000 | > 300 | 100 - 1000 | 229 | 100 - 1000 | 10 | 86 | 13 | 75 | 207 | > 300 | 22 | 166 | 100 - 1000 | 100 - 1000 | 20 | > 300 | > 300 | 100 - 1000 | 15 | fold induction at 2 h, 30000 µM [7]: 1.1; inhibition at 300 µM [10]: 34%; inhibition at 300 µM [23]: 0%
